Laboratory results from BindingDB's records for doi:10.7270/Q2QF8R8B (Pcmd, 2008).

Each compound was assayed against T1, Cathepsin G (Homo sapiens, UniProt P08311) (assay: IC50 of CTSG protease blockers – biochemical, confirmation, dose response (AID 832)).
T1 sequence (P08311 whole entry): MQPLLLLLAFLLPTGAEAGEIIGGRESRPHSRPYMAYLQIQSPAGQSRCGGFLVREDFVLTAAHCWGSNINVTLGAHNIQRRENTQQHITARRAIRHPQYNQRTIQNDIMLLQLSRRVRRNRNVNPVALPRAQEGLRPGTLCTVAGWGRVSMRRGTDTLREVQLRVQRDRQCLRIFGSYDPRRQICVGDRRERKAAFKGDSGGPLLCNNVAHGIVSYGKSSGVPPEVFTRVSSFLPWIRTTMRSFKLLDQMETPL

Row | SMILES | IC50 [µM]
1 | COc1ccc2c(c1)CCc1c(C(=O)Nc3cc(C)n(Cc4ccc(Cl)cc4)n3)noc1-2 [MLS000087458] | 1.47
2 | CCCNC(=O)c1noc2c1CCc1ccccc1-2 [MLS000116420] | 2.55
3 | CCC(=O)Nc1cccc(-c2nc3ccccc3c(=O)o2)c1 [MLS000090237] | 3.43
4 | O=C(c1noc2c1CCc1ccccc1-2)N1CCCc2ccccc21 [3-(3,4-dihydroquinolin-1(2H)-ylcarbonyl)-4,5-dihydronaphtho[2,1-d]isoxazole] | 47.6
5 | COc1ccc(C(=O)n2nc(-c3ccccc3)nc2N)cc1OC [MLS000099650] | 4.43
6 | CSc1nc(-c2ccco2)nn1C(=O)c1ccc(C)cc1 [[3-(furan-2-yl)-5-methylsulfanyl-1,2,4-triazol-1-yl]-(4-methylphenyl)methanone] | 1.02
7 | CCCC(=O)Nc1ccc(C(=O)n2nnc3ccccc32)cc1 [N-[4-(1H-1,2,3-benzotriazol-1-ylcarbonyl)phenyl]butanamide] | 0.923
8 | CSc1nc(-c2ccco2)nn1C(=O)c1ccco1 [2-furanyl-[3-(2-furanyl)-5-(methylthio)-1,2,4-triazol-1-yl]methanone] | 11.7
9 | O=c1oc(-c2cccnc2)nc2ccccc12 [2-(3-pyridinyl)-3,1-benzoxazin-4-one] | 2.77
10 | CCOC(=O)c1c(C)n(C(=O)c2ccco2)c(=O)n1C(=O)c1ccco1 | 12
11 | O=C(NCc1cccs1)c1cc(-c2cccs2)on1 [5-thien-2-yl-N-(thien-2-ylmethyl)isoxazole-3-carboxamide] | 15.2
12 | CC(C)(C)OC(=O)N[C@@H](Cc1ccccc1)c1nnc(S(=O)(=O)Cc2cccc(F)c2)o1 [tert-butyl N-[(1S)-1-[5-[(3-fluorophenyl)methylsulfonyl]-1,3,4-oxadiazol-2-yl]-2-phenylethyl]carbamate] | 2.67
13 | CCN1C(=O)c2ccc(-c3nc4ccccc4c(=O)o3)cc2C1=O [2-ethyl-5-(4-keto-3,1-benzoxazin-2-yl)isoindoline-1,3-quinone] | > 50
14 | Cc1ccccc1CS(=O)(=O)c1nnc([C@H](CC(C)C)NC(=O)OC(C)(C)C)o1 [SMR000044673] | 22.6
15 | Cc1ccccc1Cn1nc(C)c(NC(=O)c2noc3c2CCc2ccccc2-3)c1C [MLS000116424] | 6.45
16 | COc1ccc2c(c1)CCc1c(C(=O)NCc3ccco3)noc1-2 [MLS000087436] | 1.58
17 | COc1ccc2c(c1)CCc1c(C(=O)NCCN3CCOCC3)noc1-2 [7-methoxy-N-(2-morpholin-4-ylethyl)-4,5-dihydrobenzo[g][1,2]benzoxazole-3-carboxamide] | 5.82
18 | CC(C)C(CC(=O)N1CCCCC1)C1CCOC(C)(C)C1 (stereo not drawn) [3-(2,2-dimethyl-4-oxanyl)-4-methyl-1-(1-piperidinyl)-1-pentanone] | > 50
19 | CCOC(=O)c1ccc(/N=C/c2nc(-c3ccccc3)oc2OC(C)=O)cc1 [MLS000027596] | 21.6
20 | CC(C)[C@H](NC(=O)OC(C)(C)C)c1nnc(S(=O)(=O)Cc2c(F)cccc2Cl)o1 [SMR000044502] | 9.38
21 | CC(=O)Nc1cccc(-c2nc3ccccc3c(=O)o2)c1 [MLS000061720] | 2.17
22 | COc1ccccc1-c1cc(C(=O)NCc2ccccc2)no1 [5-(2-methoxyphenyl)-N-(phenylmethyl)-1,2-oxazole-3-carboxamide] | 13.3
23 | COC(=O)c1ccccc1NC(=O)c1cc2sccc2n1C [2-[(4-Methyl-4H-thieno[3,2-b]pyrrole-5-carbonyl)-amino]-benzoic acid methyl ester] | 30.4
24 | COc1ccc2c(c1)CCc1c(C(=O)Nc3c(C)n(C)n(-c4ccccc4)c3=O)noc1-2 [MLS000087455] | 4.64
25 | CC(C)(C)OC(=O)N[C@@H](Cc1ccccc1)c1nnc(S(=O)(=O)Cc2ccccc2)o1 [SMR000047857] | 1.95
26 | Cn1cnnc1SCc1ccc(C(=O)n2ncc(C#N)c2N)cc1 [5-amino-1-[4-[(4-methyl-1,2,4-triazol-3-yl)sulfanylmethyl]benzoyl]pyrazole-4-carbonitrile] | 3.86
27 | Cc1ccc(C(=O)n2cnnc2N)cc1C [4-(3,4-dimethylbenzoyl)-4H-1,2,4-triazol-3-amine] | 1.58
28 | O=c1oc(-c2cccc(S(=O)(=O)N3CCOCC3)c2)nc2ccccc12 [2-(3-morpholin-4-ylsulfonylphenyl)-3,1-benzoxazin-4-one] | 4.05
